Consider two compounds from paper PMC5234776, “Study of the Antimicrobial Activity of Tilapia Piscidin 3 (TP3) and TP4 and Their Effects on Immune Functions in Hybrid Tilapia (Oreochromis spp.)” (PLoS ONE, 2017).

Assay [1] relates to V. vulnificus. In words: microbe, parasite or virus in culture. The class given is cell-based, Vibrio vulnificus. As to conditions: for antimicrobial activity in the pH 2 solution: pH 2, in words. As to the method:
To understand the effects of pH on TP3 or TP4, the reagents were dissolved in ddH2O, 1 M HCl or 1 M NaOH to obtain solutions with different pH values. For the temperature-dependent functional study, the TP3 or TP4 was added to a solution in a water bath (Basic life, model BL3002, Taiwan) and incubated for 60 minutes at different temperatures (40, 60, 80, or 100°C). To evaluate the effects of TP3 and TP4 on pepsin and trypsin function, each peptide was incubated for 10 or 30 minutes with different concentrations of pepsin or trypsin (0.1, 1, or 10 μg/ml), and we determined the MIC values after incubating these solutions with cells at 28°C for 720 minutes, according to a previously described MIC experimental protocol.

In assay [2] the test system is V. vulnificus. Briefly: Tilapia survival, co-treatment with V. vulnificus and peptide. It is filed as in vivo, tilapia (Oreochromis spp.). As to conditions: abdominal cavity, seven days. An excerpt: We obtained tilapia (Oreochromis spp.) from a commercial aquaculture company. The fish body lengths were 4.0±0.6 cm, and body weights were 3.1±0.3 g. The tilapia were maintained in a 2000 liter indoor aquarium at the Marine Research Station, Ilan, Taiwan. To study the efficacy with which TP3 and TP4 protect tilapia against V. vulnificus, we injected the bacteria into the abdominal cavities (peritoneum) of the tilapia using a syringe (29 Gx1/2, Terumo Medical, Elkton, MD, USA); control tilapia were injected with PBS-buffered saline. For the first trial in each group, we used 15 tilapia: (a) group 1 was injected with V. vulnificus (2×10^5 CFU/fish) only; (b) group 2 was injected with PBS only; and (c) group 3 was injected with bacterial cells (2×10^5 CFU/fish) combined with a mixture containing both TP3 and TP4 peptides (at 0.1, 1, 10, or 20 μg/fish) that had been incubated for 60 minutes at 28°C. Next, at 168 hours after the first injection, the tilapia that survived the first co-treatment were again injected with V. vulnificus (2×10^5 CFU/fish). For this second challenge, we chose tilapia with similar body weights and ages that had not been previously treated with V. vulnificus, TP3 or TP4 for the V. vulnificus-only group (control group), and we recorded the survival rate over seven days. For the third trial, each group contained 15 tilapia, each of which was injected with 20, 30, or 40 μg of TP3 or TP4 followed by V. vulnificus (2×10^5 CFU/fish) after 0.5, 1, or 2 hours. The survival rate was recorded after seven days. For the fourth trial, each group contained 15 tilapia, each of which was first injected with V. vulnificus (2×10^5 CFU/fish) and then with 20, 30, or 40 μg of TP3 or TP4 after 0.5, 1, or 2 hours; the survival rate was recorded over seven days. Each experimental group consisted of 15 fish per treatment and three replicates (triplicate groups of 15 fish per treatment). We performed multiple group comparisons by analysis of variance (ANOVA) using SPSS software, and pairwise comparisons of groups were performed using a t-test. Significant differences were indicated as *P<0.05 and **P<0.01.

Assay [3] deals with IL-1β, IL-6, IL-8, Mcp-8, β-defensin. Briefly: qPCR of immune-related gene expression in tilapia liver and spleen. It is filed as in vivo, tilapia (Oreochromis spp.). As to conditions: in words; for expression of immune-related genes IL-1β, IL-6, IL-8 and MCP-8: co-treatment or peptide treatment alone; for expression of TP2, TP3, TP4 or β-defensin antimicrobial peptide genes in liver: peptide alone or co-treatment, 3 hours after treatment. The method, then:
Total RNA was isolated from the tilapia by peptide treatment before, concurrent with and after infection as described above. The groups included one that was only injected with V. vulnificus (2×10^5 CFU/fish) and one that was only injected with peptides (20 μg/fish). Samples were collected at 3, 6, 12, 24, and 48 hours after treatment to extract RNA, and the levels of tilapia total RNA obtained from the liver and spleen were determined with comparative real-time qRT-PCR analysis of all experimental groups. Real-time qRT-PCR was used to detect the levels of IL-1β (GenBank accession no. DQ061114.1), IL-6 (GenBank accession no. XM_005478656), IL-8 (GenBank accession no. NM001279706), Mcp-8 (GenBank accession no. XM_005478749) and β-defensin (GenBank accession no. KF294753). mRNA was isolated and transcribed into complementary first strands (c) according to previously published methods for real-time comparative qPCR to obtain DNA and detect the relative expression levels of each gene. All samples were examined in triplicate using a sample size of five tilapia. The reactions used to analyze gene expression consisted of 0.05 μg of total RNA. Comparative qRT-PCR Mastermix for the SYBR Green kit (Applied Biosystems, Perkin-Elmer) was used for quantification. The total reaction volume was 20 μl; the reactions were run in 96-well plates; and the program consisted of 40 cycles of 3 seconds at 95°C and 20 seconds at 60°C. We added a dissociation thermal start temperature of […] to each experiment to analyze the melting peaks of the generated PCR products. The data from each experiment were expressed as a ratio of the specific target gene expression/β-actin RNA expression. We used t-tests to compare groups, and multiple group comparisons were tested by ANOVA in SPSS software. Differences were defined as significant at P<0.05 (*), <0.01 (**), and <0.001 (***).

The test system of assay [4] is V. vulnificus. Briefly: In vivo bactericidal activity, bacterial load in tilapia liver. Also noted: species or system tilapia (Oreochromis spp.). As to conditions: for V. vulnificus bacterial load in the liver versus infected untreated fish: 20, 30 or 40 μg/fish, co-, pre- or post-treatment, in words; for bacterial clearance of V. vulnificus from the tilapia: after 48 hours. The method, then:
Three groups of fish were used for these experiments. The first group was first injected with V. vulnificus (2×10^5 CFU/fish) followed by TP3 or TP4 peptides (20, 30, or 40 μg/fish) 0.5 hours later. A second group was first injected with TP3 or TP4 peptides (20, 30, or 40 μg/fish) and then, 0.5 hours later, with V. vulnificus (2×10^5 CFU/fish). A third group of tilapia was simultaneously injected (co-treated) with V. vulnificus (2×10^5 CFU/fish) and TP3 or TP4 peptides (20, 30, or 40 μg/fish). Liver samples were obtained from each group of tilapia at 3, 6, 9, 12, 24, and 48 hours after the final treatment and the tissues were homogenized in TSB medium before being spread onto TCBS plates. We incubated the plates at 28°C for 12 hours and then counted the number of bacterial colonies.

The mark [5] stands for this setting: co-injection of V. vulnificus and peptide 0.1 μg/fish.
[6] abbreviates: co-injection of V. vulnificus and peptide 1 μg/fish.
[7] abbreviates: co-injection of V. vulnificus and peptide 10 μg/fish.
The mark [8] stands for this setting: co-injection of V. vulnificus and peptide 20 μg/fish.

In brackets after ≈: the same amount, converted by molar mass. Peptide text beside a SMILES is read from it.

As to `CC[C@H](C)[C@H](NC(=O)[C@H](CC(C)C)NC(=O)[C@H](CO)NC(=O)[C@H](Cc1c[nH]cn1)NC(=O)[C@@H](NC(=O)[C@H](Cc1c[nH]cn1)NC(=O)[C@H](CCCCN)NC(=O)CNC(=O)[C@@H](NC(=O)[C@H](CO)NC(=O)[C@H](Cc1ccccc1)NC(=O)[C@H](CC(C)C)NC(=O)CNC(=O)CNC(=O)[C@@H](NC(=O)[C@@H](NC(=O)[C@H](Cc1c[nH]cn1)NC(=O)[C@H](Cc1c[nH]cn1)NC(=O)[C@@H](NC(=O)[C@@H](N)Cc1ccccc1)[C@@H](C)CC)[C@@H](C)CC)[C@@H](C)CC)C(C)C)[C@@H](C)CC)C(=O)N[C@@H](Cc1c[nH]cn1)C(=O)NCC(=O)N[C@@H](Cc1c[nH]cn1)C(=O)O` [TP3, tilapia piscidin 3] (H-FIHHIIGGLFSVGKHIHSLIHGH-OH), the “antimicrobial activity in the pH 2 solution” value in the assay with V. vulnificus [1] was “Neither the antibiotics nor TP3 and TP4 showed any antimicrobial activity”. This compound also gave an MBC in the assay on V. vulnificus [1] (pH 7) of 62.5 µg/mL (≈ 24.4 µM). The survival rate was 0% with V. vulnificus [2] (setting [5]), 0% with V. vulnificus [2] (setting [6]), 73.3% in the assay on V. vulnificus [2] (setting [7]) and 95.3% with V. vulnificus [2] (setting [8]). Further, the “expression of immune-related genes IL-1β, IL-6, IL-8 and MCP-8” value in assay [3] was “down-regulation”. For the same compound, the “expression of TP2, TP3, TP4 or β-defensin antimicrobial peptide genes in liver” value in assay [3] is on record as “down-regulated”. The “IL-1β, IL-6, IL-8, Mcp-8 and β-defensin gene expression in liver” value in assay [3] (pre-treatment and post-treatment groups, three hours after infection with V. vulnificus) is “significantly higher levels”. The “IL-1β, IL-6, IL-8 and β-defensin gene expression in spleen” value in assay [3] (pre-treatment and post-treatment, three hours after infection) is on record as “significant increase”. Besides, the “V. vulnificus bacterial load in the liver versus infected untreated fish” value in the assay with V. vulnificus [4] is recorded as “significantly lower”. In addition, in the assay on V. vulnificus [4], the “bacterial clearance of V. vulnificus from the tilapia” value worked out at 100%.
As to `CC[C@H](C)[C@H](NC(=O)[C@H](C)NC(=O)[C@H](CCCCN)NC(=O)CNC(=O)[C@H](C)NC(=O)[C@H](CO)NC(=O)[C@H](Cc1ccccc1)NC(=O)[C@H](CC(C)C)NC(=O)CNC(=O)CNC(=O)[C@@H](NC(=O)[C@@H](NC(=O)[C@H](Cc1c[nH]cn1)NC(=O)[C@H](Cc1c[nH]cn1)NC(=O)[C@@H](NC(=O)[C@@H](N)Cc1ccccc1)[C@@H](C)CC)[C@@H](C)CC)[C@@H](C)CC)C(=O)N[C@@H](Cc1c[nH]cn1)C(=O)N[C@@H](CCCNC(=N)N)C(=O)N[C@@H](CC(C)C)C(=O)N[C@H](C(=O)N[C@@H](CCCNC(=N)N)C(=O)N[C@@H](CCCNC(=N)N)C(=O)N[C@@H](CCCNC(=N)N)C(=O)N[C@@H](CCCNC(=N)N)C(=O)N[C@@H](CCCNC(=N)N)C(=O)O)[C@@H](C)CC` [TP4, tilapia piscidin 4] (H-FIHHIIGGLFSAGKAIHRLIRRRRR-OH), the “antimicrobial activity in the pH 2 solution” value in the assay on V. vulnificus [1] is “Neither the antibiotics nor TP3 and TP4 showed any antimicrobial activity”. Further, in the assay on V. vulnificus [1] (pH 7), the MBC turned out to be 7.8 µg/mL (≈ 2.62 µM) and the MIC is 7.8 µg/mL (≈ 2.62 µM). The survival rate in the assay with V. vulnificus [2] (setting [5]) came out at 73.3%. For the same compound, in the assay with V. vulnificus [2] (setting [6]), the survival rate amounted to 75%. In addition, the survival rate in the assay on V. vulnificus [2] (setting [7]) is on record as 86%. In the assay with V. vulnificus [2] (setting [8]), the survival rate came out at 88.9%. For the same compound, in assay [3], the “expression of immune-related genes IL-1β, IL-6, IL-8 and MCP-8” value is “down-regulation”; the “expression of TP2, TP3, TP4 or β-defensin antimicrobial peptide genes in liver” value is “down-regulated”. Further, the “IL-1β, IL-6, IL-8 and Mcp-8 expression in spleen” value in assay [3] (peptide alone or co-injected with V. vulnificus, 12 hours after treatment) was “lower”. Further, in the assay on V. vulnificus [4], the “V. vulnificus bacterial load in the liver versus infected untreated fish” value is listed as “significantly reduced” and the “bacterial clearance of V. vulnificus from the tilapia” value is reported as 100%.
